The supplement of paper PMC10307832

Columns and labels:
Assay in all cases: relative viability (nuclei count vs DMSO), 5 days (fraction); higher = more cells survive
Obatoclax + Palbociclib = compound: COC1=CC(c2cc3ccccc3[nH]2)=N/C1=C\c1[nH]c(C)cc1C [Obatoclax] + CC(=O)c1c(C)c2cnc(Nc3ccc(N4CCNCC4)cn3)nc2n(C2CCCC2)c1=O [Palbociclib] (partner 0.5 µM)
Summary of the method: (§1)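 A single step with final 0.05% Triton X-100, 1% formaldehyde and 1 ug/ml Hoechst fixed the cells and stained nuclei 5 days after treatment. Lung cancer cell lines in 1536-well plates had been treated by pin tool the day after seeding with one drug alone or a fixed anchor-drug dose plus five library-drug doses (not always all listed) in √10 steps, and nuclei were counted on 4× images. Relative viability is the ratio of nuclei in treated wells to nuclei in vehicle wells, taken as the median of duplicate plates.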

[1] = compound: CC1=CC(=NN1)NC2=CC(=NC(=N2)/C=C/C3=CC=CC=C3)N4CCN(CC4)C + O=C(CCCCCCC(=O)Nc1ccccc1)NO [Vorinostat] (partner 1 µM)
Summary of the method: as §1

[2] = compound: CC1=CC(=NN1)NC2=CC(=NC(=N2)/C=C/C3=CC=CC=C3)N4CCN(CC4)C + Nc1nc2[nH]cc(CCc3ccc(C(=O)N[C@@H](CCC(=O)O)C(=O)O)cc3)c2c(=O)[nH]1 [Pemetrexed] (partner 0.2 µM)
Summary of the method: as §1

[3] = compound: CC1=CC(=NN1)NC2=CC(=NC(=N2)/C=C/C3=CC=CC=C3)N4CCN(CC4)C + N=C(N)NC(=N)NCCc1ccccc1 [Phenformin] (partner 250 µM)
Summary of the method: as §1

Cell Line | relative viability (Obatoclax + Palbociclib; first compound 0.01 µM) | relative viability (Obatoclax + Palbociclib; first compound 0.03162 µM) | relative viability (Obatoclax + Palbociclib; first compound 0.1 µM) | relative viability (Obatoclax + Palbociclib; first compound 0.3162 µM) | relative viability (Obatoclax + Palbociclib; first compound 1 µM) | relative viability ([1]; first compound 0.08 µM) | relative viability ([1]; first compound 0.253 µM) | relative viability ([1]; first compound 0.8 µM) | relative viability ([1]; first compound 2.53 µM) | relative viability ([1]; first compound 8 µM) | relative viability ([2]; first compound 0.08 µM) | relative viability ([2]; first compound 0.253 µM) | relative viability ([2]; first compound 0.8 µM) | relative viability ([2]; first compound 2.53 µM) | relative viability ([2]; first compound 8 µM) | relative viability ([3]; first compound 0.08 µM) | relative viability ([3]; first compound 0.253 µM) | relative viability ([3]; first compound 0.8 µM) | relative viability ([3]; first compound 2.53 µM) | relative viability ([3]; first compound 8 µM)
NCI-H1734 | 0.3 | 0.338 | 0.337 | 0.32 | 0.303 | 0.745 | 0.757 | 0.694 | 0.22 | 0.187 | 0.409 | 0.384 | 0.409 | 0.238 | 0.199 | 0.417 | 0.375 | 0.391 | 0.162 | 0.104
NCI-H1755 | 0.427 | 0.447 | 0.458 | 0.497 | 0.426 | 0.682 | 0.773 | 0.651 | 0.359 | 0.209 | 0.428 | 0.381 | 0.462 | 0.32 | 0.294 | 0.658 | 0.616 | 0.551 | 0.333 | 0.221
NCI-H1793 | 0.286 | 0.284 | 0.323 | 0.33 | 0.384 | 0.544 | 0.77 | 0.78 | 0.124 | 0.0909 | 0.698 | 1.03 | 0.644 | 0.137 | 0.0795 | 0.344 | 0.423 | 0.314 | 0.132 | 0.121
NCI-H1915 | 0.527 | 0.557 | 0.521 | 0.486 | 0.522 | 0.493 | 0.584 | 0.467 | 0.376 | 0.116 | 0.523 | 0.553 | 0.452 | 0.37 | 0.137 | 0.368 | 0.393 | 0.337 | 0.234 | 0.165
NCI-H1944 | 0.344 | 0.313 | 0.34 | 0.318 | 0.319 | 0.581 | 0.565 | 0.394 | 0.286 | 0.16 | 0.566 | 0.652 | 0.611 | 0.365 | 0.312 | 0.195 | 0.225 | 0.186 | 0.166 | 0.119
NCI-H1975 | 0.557 | 0.55 | 0.285 | 0.542 | 0.177 | 0.663 | 0.733 | 0.536 | 0.187 | 0.128 | 0.281 | 0.281 | 0.286 | 0.187 | 0.137 | 0.409 | 0.397 | 0.388 | 0.138 | 0.118
NCI-H1993 | 0.703 | 0.611 | 0.692 | 0.693 | 0.686 | 0.737 | 0.734 | 1.03 | 0.238 | 0.275 | 0.58 | 0.65 | 0.592 | 0.516 | 0.351 | 0.462 | 0.492 | 0.427 | 0.498 | 0.437
NCI-H2009 | 0.215 | 0.224 | 0.194 | 0.188 | 0.123 | 0.751 | 0.699 | 0.712 | 0.218 | 0.121 | 1.09 | 1.03 | 0.982 | 0.909 | 0.313 | 0.501 | 0.503 | 0.492 | 0.27 | 0.148
NCI-H2023 | 0.414 | 0.361 | 0.358 | 0.213 | 0.218 | 0.586 | 0.781 | 0.319 | 0.0637 | 0.0403 | 0.214 | 0.283 | 0.198 | 0.117 | 0.0581 | 0.366 | 0.517 | 0.382 | 0.0903 | 0.0763
NCI-H2085 | 0.472 | 0.45 | 0.462 | 0.482 | 0.423 | 0.826 | 0.95 | 0.822 | 0.322 | 0.366 | 0.994 | 0.982 | 0.952 | 0.325 | 0.258 | 0.653 | 0.769 | 0.679 | 0.279 | 0.236
NCI-H2087 | 0.212 | 0.216 | 0.183 | 0.231 | 0.116 | 0.697 | 0.954 | 0.72 | 0.324 | 0.141 | 0.63 | 0.652 | 0.652 | 0.566 | 0.162 | 0.536 | 0.318 | 0.488 | 0.105 | 0.1
NCI-H2126 | 0.34 | 0.34 | 0.376 | 0.356 | 0.337 | 0.816 | 0.82 | 0.834 | 0.674 | 0.202 | 0.696 | 0.649 | 0.633 | 0.569 | 0.426 | 0.518 | 0.557 | 0.525 | 0.365 | 0.227
NCI-H2170 | 0.372 | 0.4 | 0.393 | 0.368 | 0.43 | 0.867 | 0.921 | 0.65 | 0.211 | 0.153 | 0.266 | 0.246 | 0.248 | 0.193 | 0.181 | 0.44 | 0.388 | 0.382 | 0.32 | 0.204
NCI-H2228 | 0.609 | 0.792 | 0.573 | 0.525 | 0.401 | 0.778 | 0.647 | 0.328 | 0.0662 | 0.0606 | 0.306 | 0.309 | 0.276 | 0.0818 | 0.055 | 0.286 | 0.284 | 0.238 | 0.066 | 0.0616
NCI-H2342 | 0.506 | 0.524 | 0.582 | 0.501 | 0.487 | 0.685 | 0.765 | 0.698 | 0.722 | 0.312 | 0.642 | 0.81 | 0.819 | 0.769 | 0.473 | 0.523 | 0.597 | 0.565 | 0.604 | 0.245
NCI-H2347 | 0.388 | 0.406 | 0.393 | 0.489 | 0.413 | 0.593 | 0.686 | 0.583 | 0.44 | 0.262 | 0.418 | 0.415 | 0.447 | 0.397 | 0.379 | 0.402 | 0.347 | 0.435 | 0.38 | 0.208
NCI-H2405 | 0.578 | 0.545 | – | 0.541 | 0.434 | 1.05 | 1.1 | 1.02 | 0.406 | 0.142 | 1.02 | 0.979 | 1.04 | 0.503 | 0.162 | 0.377 | 0.307 | 0.422 | 0.244 | 0.1
NCI-H3122 | 0.185 | 0.185 | 0.277 | 0.224 | 0.179 | 1.03 | 0.977 | 0.989 | 0.879 | 0.511 | 0.2 | 0.203 | 0.206 | 0.186 | 0.147 | 0.385 | 0.384 | 0.415 | 0.285 | 0.138
PC-3 [JPC-3] | 0.497 | 0.515 | 0.503 | 0.406 | 0.33 | 0.766 | 0.876 | 0.814 | 0.543 | 0.333 | 1.15 | 1.2 | 1.03 | 0.849 | 0.361 | 0.456 | 0.475 | 0.498 | 0.472 | 0.437
PC-14 | 0.453 | 0.489 | 0.411 | 0.0534 | 0.055 | 0.673 | 0.732 | 0.491 | 0.0475 | 0.041 | 0.14 | 0.134 | 0.15 | 0.0655 | 0.0336 | 0.628 | 0.618 | 0.567 | 0.166 | 0.064
RERF-LC-KJ | 0.909 | 1.06 | 1.09 | 0.957 | 0.892 | 0.523 | 0.73 | 0.577 | 0.406 | 0.301 | 0.439 | 0.484 | 0.484 | 0.397 | 0.224 | 0.417 | 0.457 | 0.372 | 0.256 | 0.245
SK-LU-1 | 0.367 | 0.419 | 0.352 | 0.326 | 0.317 | 0.721 | 0.805 | 0.672 | 0.323 | 0.107 | 1 | 0.943 | 0.933 | 0.372 | 0.127 | 0.58 | 0.511 | 0.475 | 0.109 | 0.0429
SK-MES-1 | 0.295 | 0.329 | 0.247 | 0.181 | 0.203 | 1.09 | 1.25 | 0.985 | 0.191 | 0.165 | 0.908 | 0.995 | 0.89 | 0.213 | 0.162 | 0.664 | 0.682 | 0.601 | 0.147 | 0.124
SW 900 | 0.619 | 0.543 | 0.605 | 0.475 | 0.363 | 0.388 | 0.623 | 0.535 | 0.211 | 0.0757 | 0.469 | 0.491 | 0.49 | 0.407 | 0.102 | 0.467 | 0.529 | 0.6 | 0.172 | 0.0691
SW 1573 | 0.379 | 0.35 | 0.298 | 0.118 | 0.133 | 0.703 | 0.751 | 0.572 | 0.156 | 0.102 | 0.802 | 0.852 | 0.735 | 0.126 | 0.0679 | 0.412 | 0.337 | 0.319 | 0.152 | 0.0862
UMC-11 | 0.373 | 0.346 | 0.33 | 0.322 | 0.373 | 0.371 | 0.363 | 0.201 | 0.117 | 0.0745 | 0.74 | 0.705 | 0.481 | 0.148 | 0.122 | 0.348 | 0.289 | 0.279 | 0.137 | 0.131
